# Experiments:
# μ opioid receptor (MOPR) [1] = molecular target: T1, μ opioid receptor (MOPR) (Mus musculus, UniProt P42866); type: biochemical; design: dose or concentration left out as unconfirmed; conditions: caudate-putamen membranes; FIG. 3
# T1 construct: Caudate-putamen and nucleus accumbens are identified in the frozen slices based on anatomical landmarks and samples from these two brain regions are collected; from tissue; host or cells: mouse brain: caudate-putamen and nucleus accumbens membrane preparations
# T1 sequence (P42866 whole entry): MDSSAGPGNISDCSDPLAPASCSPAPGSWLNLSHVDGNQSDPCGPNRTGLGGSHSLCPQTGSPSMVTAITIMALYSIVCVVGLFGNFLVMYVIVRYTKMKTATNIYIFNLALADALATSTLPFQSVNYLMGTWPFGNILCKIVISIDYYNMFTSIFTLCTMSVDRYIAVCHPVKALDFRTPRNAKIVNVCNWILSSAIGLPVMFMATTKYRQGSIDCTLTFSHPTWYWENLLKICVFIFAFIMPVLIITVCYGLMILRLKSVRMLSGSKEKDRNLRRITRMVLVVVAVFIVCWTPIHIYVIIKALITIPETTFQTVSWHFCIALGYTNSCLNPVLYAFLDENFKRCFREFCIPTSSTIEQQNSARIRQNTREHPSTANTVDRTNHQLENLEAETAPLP
# Protocol: Activity of the μ opioid receptor (MOPR) is assayed by using [35S]GTPγS binding on membrane preparations. The same mice that are used in the conditioned place preference assay are used for these assays Immediately upon completion of the behavioral assay, the mice are sacrificed by cervical dislocation and the brain is dissected rapidly. The brain is frozen in liquid nitrogen and 1.0 mm slices of the brain were prepared in the coronal plane using a tissue-slicing matrix (Model 15003; Ted Pella, Redding, Calif.). Caudate-putamen and nucleus accumbens are identified in the frozen slices based on anatomical landmarks and samples from these two brain regions are collected using a tissue punch. The samples are homogenized using teflon pestle in Eppendorf tubes (10 strokes) in 300 μl of homogenization buffer containing 25 mMTris/pH 7.4, 5 mMEDTA and 0.1 mMPMSF and kept on ice. Homogenate is diluted to 2.5 ml using the homogenization buffer and centrifuged at −350,000 g for 30 min. After washing 3 times with 50 mM Tris-HCl/pH 7.4, the pellets are re-suspended in 50 mM Tris-HCl/pH 7.4 containing 0.32 M sucrose, passed through a 26.5 G needle 3 times, frozen in dry ice/ethanol and stored in −80° C. until use.
# (§1) Nonspecific binding is defined by incubation in the presence of 10 μM GTPγS. […] Radioactivity on filters is determined by liquid scintillation counting. […]
# C57/B6 mice = test: Conditioned place preference (CPP); type: in vivo, mouse; conditions: for time spent in drug-paired chamber, Test sessions compared to pre-conditioning sessions: FIG. 1; for CPP score compared to saline-treated group: FIG. 2; for time spent in drug-paired chamber, Test sessions compared to PC sessions: p>0.05, n=6; for CPP score compared to saline control group: p>0.05
# Excerpt: C57/B6 mice are purchased from Charles River Laboratories. Only male mice are used.
# A three-chamber place preference apparatus is used. The apparatus has two equally sized (16.8×12 cm) preference chambers connected by a central chamber (7.2×12 cm), and is outfitted with sliding guillotine-style doors between each chamber. Photobeams connected to a computer system can record animal location and time spent in that location. The central chamber has a gray colored smooth floor. The preference chamber is either white with a mesh floor or black with a bar floor. The CPP procedure included three phases: Pre-conditioning, conditioning and test phases.
# The pre-conditioning phase is performed on day 1 (two sessions daily, AM and PM). In each pre-conditioning session, mice are initially placed in the central gray chamber for 2 min and then allowed free access to the white and black chambers for 20 min. The time spent in each chamber is recorded.
# For the next phase in the assay, the conditioning phase, the non-preferred chamber (i.e. the chamber in which less time is spent) is designated as the drug-paired chamber and the preferred chamber (i.e. the chamber in which more time was spent) is designated as the vehicle-paired chamber.
# The conditioning phase is carried out on each of days 2-6. There are two conditioning sessions daily, morning session between 8 and 10 AM and afternoon session between 2 and 4 PM. There is one session each for vehicle-paired (saline as vehicle) and drug-paired (MPH as drugs) conditions on each day of the conditioning phase. The mice are administered saline or drug (i.p.) in the saline- or drug-paired sessions, respectively and placed in the central gray chamber for 2 min (to isolate injection effect to the central chamber) and then confined to the vehicle-or-drug-paired chamber, respectively for 30 min. On the first day of the conditioning phase, the mouse receive saline during the morning session and the drug in the afternoon session. The next day, the order of treatments is reversed: drug in the morning session and saline in the afternoon session. These two paradigms are alternated for the remainder of the conditioning phase. This conditioning strategy is used for all the experiments except those using naltrexone.
# Saline is administered on the first day and naltrexone (or naltrexone+MPH) is administered the following day. Administrations of saline and naltrexone are alternated for each of the next 9 days (total duration of conditioning is 10 days).
# During the test phase, (one session on the day after the conditioning phase) the mice are placed in the central gray chamber for 2 min and then given free access to the drug- and saline-paired chambers for 20 min. The time spent in each chamber is recorded. The difference between time spent in the drug-paired chamber during the test phase and pre-conditioning phases was calculated as the CPP score. Saline and the drugs are administered intraperitoneally. All the behavioral analyses are performed during the light phase of the light-dark cycle.
# Differences between two experimental groups are analyzed for statistical significance by using Student's t-test. Treatment effects on multiple groups are tested for significance by using one-way ANOVA and the differences among the groups are tested for significance by using Dunnett's multiple comparisons test.
# μ opioid receptor (MOPR) [2] = test: MOPR activity by DAMGO-stimulated [35S]GTPγS binding in brain membranes of drug-treated mice after the CPP assay; type: in vivo, mouse; conditions: low dose MPH 0.75 mg/kg; either brain region; FIG. 4
# Protocol: Activity of the μ opioid receptor (MOPR) is assayed by using [35S]GTPγS binding on membrane preparations. The same mice that are used in the conditioned place preference assay are used for these assays Immediately upon completion of the behavioral assay, the mice are sacrificed by cervical dislocation and the brain is dissected rapidly. The brain is frozen in liquid nitrogen and 1.0 mm slices of the brain were prepared in the coronal plane using a tissue-slicing matrix (Model 15003; Ted Pella, Redding, Calif.). Caudate-putamen and nucleus accumbens are identified in the frozen slices based on anatomical landmarks and samples from these two brain regions are collected using a tissue punch. The samples are homogenized using teflon pestle in Eppendorf tubes (10 strokes) in 300 μl of homogenization buffer containing 25 mMTris/pH 7.4, 5 mMEDTA and 0.1 mMPMSF and kept on ice. Homogenate is diluted to 2.5 ml using the homogenization buffer and centrifuged at −350,000 g for 30 min. […]
# as §1
# Differences between two experimental groups are analyzed for statistical significance by using Student's t-test. […]
# [3] = system: prenatal nicotine exposure mouse model of ADHD; conditions: cited from earlier work
# [4] = 0.75 mg/kg MPH administered to adult mice; cited from earlier work
# [5] = naltrexone 5 mg/kg prior to MPH 7.5 mg/kg, FIG. 6
# [6] = naltrexone 10 mg/kg prior to MPH 7.5 mg/kg, FIG. 6
structure (smiles),measurement,setting,value
C[C@@H](NC(=O)[C@@H](N)Cc1ccc(O)cc1)C(=O)NCC(=O)N(C)[C@@H](Cc1ccccc1)C(=O)NCCO [DAMGO],maximal [35S]GTPγS binding,μ opioid receptor (MOPR) [1],1.75 fold of the basal level
"COC(=O)C(c1ccccc1)C1CCCCN1 (centres unmarked) [MPH, methylphenidate]","time spent in drug-paired chamber, Test sessions compared to pre-conditioning sessions","C57/B6 mice; high-dose MPH 7.5 mg/kg i.p., t-test p=0.005, n=6/group",significantly longer period of time in the drug-paired chamber
same,"time spent in drug-paired chamber, Test sessions compared to pre-conditioning (PC) sessions","C57/B6 mice; high-dose MPH 7.5 mg/kg plus saline, naltrexone experiment, FIG. 5",significantly longer period of time in the drug-paired chamber
same,CPP score compared to saline-treated group,"C57/B6 mice; high-dose MPH 7.5 mg/kg, multiple comparisons test",significant (p<0.05) effects
same,CPP score compared to saline control,"C57/B6 mice; high-dose MPH 7.5 mg/kg, naltrexone experiment, p<0.01, FIG. 6",significantly greater than that produced by the saline control
same,"time spent in drug-paired chamber, Test sessions compared to pre-conditioning sessions","C57/B6 mice; low dose MPH 0.75 mg/kg i.p., t-test p>0.05",do not show significant differences
same,CPP score compared to saline-treated group,C57/B6 mice; low dose MPH 0.75 mg/kg,no significant difference
same,MOPR activity compared to the saline group,μ opioid receptor (MOPR) [2],no significant difference
same,effect on hyperactivity,[3]; 0.75 mg/kg methylphenidate,reduce hyperactivity
same,time after administration at which hyperactivity started to decline,[3]; ADHD mouse model,2 h
same,serum and brain concentrations of D-methylphenidate,[4],equivalent to the levels seen in human subjects given oral therapeutic doses of MPH
O=C1CC[C@@]2(O)[C@H]3Cc4ccc(O)c5c4[C@@]2(CCN3CC2CC2)[C@H]1O5 [naltrexone],"time spent in drug-paired chamber, Test sessions compared to PC sessions","C57/B6 mice; naltrexone 1 mg/kg alone, FIG. 5",Neither saline alone nor naltrexone (1 or 10 mg/kg) alone produces significant changes
same,CPP score compared to prior treatment with saline,"C57/B6 mice; naltrexone 1 mg/kg prior to MPH 7.5 mg/kg, FIG. 6",significantly decrease the CPP score
same,CPP score compared to prior treatment with saline,C57/B6 mice; [5],significantly decrease the CPP score
same,CPP score compared to saline control group,C57/B6 mice; [5],not significantly different
same,abuse potential of methylphenidate,C57/B6 mice; naltrexone 10 mg/kg administered with 7.5 mg/kg methylphenidate,completely abolishes the abuse potential of methylphenidate
same,"time spent in drug-paired chamber, Test sessions compared to PC sessions","C57/B6 mice; naltrexone 10 mg/kg alone, FIG. 5",Neither saline alone nor naltrexone (1 or 10 mg/kg) alone produces significant changes
same,CPP score compared to prior treatment with saline,C57/B6 mice; [6],significantly decrease the CPP score
same,CPP score compared to saline control group,C57/B6 mice; [6],not significantly different
same,dose dependence of the decrease in the CPP score,"C57/B6 mice; naltrexone 1, 5 or 10 mg/kg prior to MPH 7.5 mg/kg, FIG. 6",dose-dependent

# Source: US20150110865A1, “CNS STIMULANT AND OPIOID RECEPTOR ANTAGONIST COMBINATION AS A NON-ADDICTIVE, NON-AVERSIVE AND SYNERGISTIC ANTI-OBESITY TREATMENT” (FLORIDA STATE UNIVERSITY RESEARCH FOUNDATION, priority 2013, published 2015)
